Measurements published in publication PMC5607265, “Design, synthesis and structure-activity relationship of 3,6-diaryl-7H-[1,2,4]triazolo[3,4-b][1,3,4]thiadiazines as novel tubulin inhibitors” (Scientific Reports, 2017).
Read-outs that look alike come from different tables or passages of the source.

Key:
[1] = tested on: gastric adenocarcinoma SGC-7901 cells; assay: MTT antiproliferative assay, SGC-7901; type: cell-based, human; details: MTT assay, 24 h exposure, triplicate, read-out: IC50 SGC-7901
Procedure: (§1) The SGC-7901, A549 and HT-1080 cell lines were purchased from the American Type Culture Collection (ATCC, Manassas, VA, USA). […] Briefly, approximately 3 × 10^4 cells were seeded in a 96-well plate. After 24 h of incubation at 37 °C, cells were exposed to compounds of differing concentrations for 24 h. After treatment, cells were washed with 1X PBS followed by addition of 100 µL of 0.05% MTT reagent to each well, followed by incubation for 4 h at 37 °C. After incubation, the supernatant from each well was carefully removed and the formazan crystals were dissolved in 100 µL of DMSO. The colour density was measured spectrophotometrically at 490 nm using a microplate reader (SpectraMax Plus384, Molecular Devices Corp., USA). The data were calculated and plotted as percent viability compared to control.
as §1

[2] = tested on: lung adenocarcinoma A549 cells; assay: MTT antiproliferative assay, A549; type: cell-based, human; details: MTT assay, 24 h exposure, triplicate, read-out: IC50 A549
Procedure: as §1, §1

[3] = tested on: fibrosarcoma HT-1080 cells; assay: MTT antiproliferative assay, HT-1080; type: cell-based, human; details: MTT assay, 24 h exposure, triplicate, read-out: IC50 HT-1080
Procedure: as §1, §1

[4] = tested on: SGC-7901, A549 and HT-1080 cell lines; assay: MTT antiproliferative assay, span over the three cell lines; type: cell-based, human; details: MTT assay
Procedure: as §1, §1

| SMILES | IC50 ([1]; Homo sapiens, SGC-7901) | IC50 ([2]; Homo sapiens, A549) | IC50 ([3]; Homo sapiens, HT-1080) | melting point | IC50 [1] | IC50 [2] | IC50 [3] | antiproliferative activity in words ([4]; SGC-7901, A549 and HT-1080) | IC50 ([4]; range over SGC-7901, A549 and HT-1080, read-out: IC50 range against the three human cancer cell lines) |
| --- | --- | --- | --- | --- | --- | --- | --- | --- | --- |
| COc1ccc(C2=Nn3c(nnc3-c3ccc4c(c3)OCO4)SC2)cc1F [Compound 6a, 3-(3,4-Methylenedioxyphenyl)-6-(3-fluoro-4-methoxyphenyl)-7H-[1,2,4]triazolo[3,4-b][1,3,4]thiadiazine] | 0.065 µM | 0.19 µM | 0.13 µM | 93 to 95 °C | – | – | – | – | – |
| COc1ccc(-c2nnc3n2N=C(c2ccc(C(F)(F)F)cc2)CS3)c(OC)c1OC [Compound 4e, 3-(2,3,4-Trimethoxyphenyl)-6-(4-(trifluoromethyl)phenyl)-7H-[1,2,4]triazolo[3,4-b][1,3,4]thiadiazine] | 2.42 µM | 85.4 µM | 10.5 µM | 95 to 96 °C | – | – | – | – | – |
| COc1cc(-c2nnc3n2N=C(c2ccc(C(F)(F)F)cc2)CS3)cc(OC)c1OC [Compound 5c, 3-(3,4,5-Trimethoxyphenyl)-6-(4-(trifluoromethyl)phenyl)-7H-[1,2,4]triazolo[3,4-b][1,3,4]thiadiazine] | 1.17 µM | 7.72 µM | 0.75 µM | 105 to 106 °C | – | – | – | – | – |
| COc1ccc(-c2nnc3n2N=C(c2ccc(F)cc2)CS3)c(OC)c1OC [Compound 4a, 3-(2,3,4-Trimethoxyphenyl)-6-(4-fluorophenyl)-7H-[1,2,4]triazolo[3,4-b][1,3,4]thiadiazine] | 32.6 µM | 21.2 µM | 31.3 µM | 92 to 94 °C | – | – | – | – | – |
| COc1ccc(C2=Nn3c(nnc3-c3ccc(OC)c(OC)c3OC)SC2)cc1[N+](=O)[O-] [Compound 4i, 3-(2,3,4-Trimethoxyphenyl)-6-(3-nitro-4-methoxyphenyl)-7H-[1,2,4]triazolo[3,4-b][1,3,4]thiadiazine] | 13.2 µM | 16.5 µM | 15.9 µM | 134 to 136 °C | – | – | – | – | – |
| COc1ccc(C2=Nn3c(nnc3-c3ccc(OC)c(OC)c3OC)SC2)cc1 [Compound 4f, 3-(2,3,4-Trimethoxyphenyl)-6-(4-methoxyphenyl)-7H-[1,2,4]triazolo[3,4-b][1,3,4]thiadiazine] | 62.7 µM | 50.2 µM | 61.4 µM | 92 to 95 °C | – | – | – | – | – |
| COc1ccc(C2=Nn3c(nnc3-c3cc(OC)c(OC)c(OC)c3)SC2)cc1[N+](=O)[O-] [Compound 5f, 3-(3,4,5-Trimethoxyphenyl)-6-(3-nitro-4-methoxyphenyl)-7H-[1,2,4]triazolo[3,4-b][1,3,4]thiadiazine] | 11.3 µM | 8.88 µM | 5.76 µM | 212 to 213 °C | – | – | – | – | – |
| COc1cccc(-c2nnc3n2N=C(c2ccc(OC)c([N+](=O)[O-])c2)CS3)c1 [Compound 6h, 3-(3-Methoxyphenyl)-6-(3-nitro-4-methoxyphenyl)-7H-[1,2,4]triazolo[3,4-b][1,3,4]thiadiazine] | 2.55 µM | 4.2 µM | 1.91 µM | 207 to 208 °C | – | – | – | – | – |
| COc1ccc(C2=Nn3c(nnc3-c3ccc4c(c3)OCO4)SC2)cc1[N+](=O)[O-] [Compound 6b, 3-(3,4-Methylenedioxyphenyl)-6-(3-nitro-4-methoxyphenyl)-7H-[1,2,4]triazolo[3,4-b][1,3,4]thiadiazine] | 10.5 µM | 15.7 µM | 0.08 µM | 90 to 92 °C | – | – | – | – | – |
| COc1ccc(-c2nnc3n2N=C(c2ccc(F)c(F)c2)CS3)c(OC)c1OC [Compound 4m, 3-(2,3,4-Trimethoxyphenyl)-6-(3,4-difluorophenyl)-7H-[1,2,4]triazolo[3,4-b][1,3,4]thiadiazine] | 73.2 µM | 78.1 µM | 81.3 µM | 95 to 97 °C | – | – | – | – | – |
| COc1cc(-c2nnc3n2N=C(c2ccc(C)cc2)CS3)cc(OC)c1OC [Compound 5b, 3-(3,4,5-Trimethoxyphenyl)-6-(4-methyphenyl)-7H-[1,2,4]triazolo[3,4-b][1,3,4]thiadiazine] | – | – | – | – | 0.027 µM | 0.019 µM | 0.016 µM | IC50 values at the nanomolar level | 0.016 to 0.027 µM |
| COc1ccc(-c2nnc3n2N=C(c2ccc(Br)cc2)CS3)c(OC)c1OC [Compound 4c, 3-(2,3,4-Trimethoxyphenyl)-6-(4-bromophenyl)-7H-[1,2,4]triazolo[3,4-b][1,3,4]thiadiazines] | 5.55 µM | 7.37 µM | 3.77 µM | 96 to 98 °C | – | – | – | – | – |
